Experimental findings from patent US8877775B2, “Substituted 2-aza-bicyclo[2.2.2]octane-3-carboxylic acid (benzyl-cyano-methyl)-amides inhibitors of cathepsin C” (Boehringer Ingelheim International GmbH, priority 2013, dated 2014) are described below.

What is called pIC50 is −log10 of the IC50, conventionally taken in molar units.

Assay [1] concerns the target recombinant human Cathepsin K (Homo sapiens (Human), UniProt P43235). The assay can be described thus: Inhibition of human Cathepsin K. The assay is classed as biochemical. The settings on record: substrate Z-Gly-Pro-Arg-AMC 12.5 μM, 60 min, room temperature. An excerpt: Inhibition of Human Cathepsin K
Materials: Microtiterplates (Optiplate-384 F were purchased from PerkinElmer (Prod. No. 6007270). The substrate Z-Gly-Pro-Arg-AMC was from Biomol (Prod.-No. P-142). L-Cysteine (Prod. No. 168149) was from Sigma. Sodium actetate was from Merck (Prod.-No. 6268.0250), EDTA was from Fluka (Prod.-No. 03680). The inhibitor E-64 was purchased from Sigma (Prod.-No. E3132). The recombinant human Cathepsin K proenzyme was purchased from Biomol (Prod. No. SE-367). All other materials were of highest grade commercially available.
The following buffers were used: Activation buffer: 32.5 mM sodium acetate, adjusted to pH 3.5 with HCl; Assay buffer: 150 mM sodium acetate, 4 mM EDTA, 20 mM L-Cysteine, adjusted to pH 5.5 with HCl,
To activate the proenzyme, 5 μl procathepsin K were mixed with 1 ul activation buffer, and incubated at room temperature for 30 min.
5 μL test compound (final concentration 0.1 nM to 100 μM) in aqua bidest (containing 4% DMSO, final DMSO concentration 1%) were mixed with 10 uL of Cathepsin K in assay buffer (final concentration 2 ng/μL) and incubated for 10 min. Then 5 μL of substrate in assay buffer (final concentration 12.5 μM) were added. The plates were then incubated at room temperature for is 60 min. Then, the reaction was stopped by adding 10 μL of E64 in assay buffer (final concentration 1 μM). The fluorescence in the wells was determined using a Molecular Devices SpectraMax M5 Fluorescence Reader (Ex 360 nm, Em 460 nm).
Each assay microtiter plate contains wells with vehicle controls (1% DMSO in bidest) as reference for non-inhibited enzyme activity (100% Ctl; high values) and wells with inhibitor (E64 in bidest+1% DMSO, final concentration 1 μM) as controls for background fluorescence (0% Ctl; low values). The analysis of the data was performed by calculating the percentage of fluorescence in the presence of test compound in comparison to the fluorescence of the vehicle control after subtracting the background fluorescence: (RFU(sample)−RFU(background))*100/(RFU(control)−RFU(background))
Data from these calculations were used to generate IC50 values for inhibition of Cathepsin K, respectively.

Assay [2] addresses recombinant human DPPI (Cathepsin C) (Homo sapiens (Human), UniProt P53634). Briefly: Inhibition of human DPPI (Cathepsin C). The assay is classed as biochemical. Conditions: substrate Gly-Arg-AMC 50 μM, 30 min, room temperature. From the text:
Inhibition of Human DPPI (Cathepsin C)
Materials: Microtiterplates (Optiplate-384 F) were purchased from PerkinElmer (Prod. No. 6007270). The substrate Gly-Arg-AMC was from Biotrend (Prod.-No. 808756 Custom peptide). Bovine serum albumin (BSA; Prod. No. A3059) and Dithiothreitol (DTT; Prod. No D0632) were from Sigma. TagZyme buffer was from Riedel-de-Haen (Prod.-No. 04269), NaCl was from Merck (Prod.-No. 1.06404.1000) and morpholinoethane sulfonic acid (MES), was from Serva (Prod.-No. 29834). The DPP1 inhibitor Gly-Phe-DMK was purchased from MP Biomedicals (Prod.-No. 03DK00625). The recombinant human DPPI was purchased from Prozymex. All other materials were of highest grade commercially available.
The following buffers were used: MES buffer: 25 mM MES, 50 mM NaCl, 5 mM DTT, adjusted to pH 6.0, containing 0.1% BSA; TAGZyme Buffer: 20 mM NaH2PO4, 150 mM NaCl adjusted to pH 6.0 with HCl
The recombinant human DPPI was diluted in TAGZyme buffer to 1 U/ml (38.1 μg/ml, respectively), and then activated by mixing in a 1:2 ratio with a Cysteamine aqueous solution (2 mM) and incubating for 5 min at room temperature.
Five uL test compound (final concentration 0.1 nM to 100 μM) in aqua bidest (containing 4% DMSO, final DMSO concentration 1%) were mixed with 10 μL of DPPI in MES buffer (final concentration 0.0125 ng/μL) and incubated for 10 min. Then, 5 μL of substrate in MES buffer (final concentration 50 μM) were added. The microtiter plates were then incubated at room temperature for 30 min. Then, the reaction was stopped by adding 10 μL of Gly-Phe-DMK in MES-buffer (final concentration 1 μM). The fluorescence in the wells was determined using a Molecular Devices SpectraMax M5 Fluorescence Reader (Ex 360 nm, Em 460 nm) or an Envision Fluorescence Reader (Ex 355 nm, Em 460 nm).
The analysis of the data was performed by calculating the percentage of fluorescence in the presence of test compound in comparison to the fluorescence of the vehicle control after subtracting the background fluorescence using the following formula: (RFU(sample)−RFU(background))*100/(RFU(control)−RFU(background))
Data from these calculations were used to generate IC50 values for inhibition of DPPI, respectively.

pIC50: −log10 of the molar value.

Sequence of recombinant human Cathepsin K (P43235 115-329): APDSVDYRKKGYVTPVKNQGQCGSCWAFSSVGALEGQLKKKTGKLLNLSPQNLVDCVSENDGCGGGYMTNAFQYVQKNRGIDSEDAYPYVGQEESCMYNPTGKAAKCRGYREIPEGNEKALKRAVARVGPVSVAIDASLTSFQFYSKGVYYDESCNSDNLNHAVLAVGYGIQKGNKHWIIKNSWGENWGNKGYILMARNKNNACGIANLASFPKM
Sequence of recombinant human DPPI (Cathepsin C) (P53634 231-394): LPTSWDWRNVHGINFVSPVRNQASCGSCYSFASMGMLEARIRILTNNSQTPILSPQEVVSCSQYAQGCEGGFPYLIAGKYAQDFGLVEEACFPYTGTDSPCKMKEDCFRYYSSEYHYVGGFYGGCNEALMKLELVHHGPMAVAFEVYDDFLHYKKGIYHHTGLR
Sequence of recombinant human DPPI (Cathepsin C) (P53634 395-463): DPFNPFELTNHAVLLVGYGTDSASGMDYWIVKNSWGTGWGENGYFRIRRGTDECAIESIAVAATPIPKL
Sequence of recombinant human DPPI (Cathepsin C) (P53634 25-134): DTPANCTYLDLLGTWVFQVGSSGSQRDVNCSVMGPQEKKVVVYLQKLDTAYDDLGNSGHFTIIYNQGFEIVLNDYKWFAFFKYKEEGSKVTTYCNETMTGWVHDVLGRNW

Consider `N#C[C@H](Cc1ccc(-c2ccc3c(c2)NC(=O)C3)cc1)NC(=O)[C@H]1NC2CCC1CC2` [Example 2, (2S)—N-[(1S)-cyano-2-[4-(2-oxoindolin-6-yl)phenyl]ethyl]-3-azabicyclo[2.2.2]octane-2-carboxamide], for which the pIC50 is 5.38 in assay [1] and 7.30 in assay [2].
In the case of `CN1C(=O)Cc2ccc(-c3ccc(C[C@@H](C#N)NC(=O)[C@H]4N[C@H]5CC[C@@H]4CC5)cc3)cc21` [Example 4], the pIC50 was 5.20 in assay [1] and 7.49 in assay [2].
For the compound `N#Cc1ccc(-c2ccc(C[C@@H](C#N)NC(=O)[C@H]3N[C@H]4CC[C@@H]3CC4)cc2)cc1F` [Example 7, (2S)—N-[(1S)-1-cyano-2-[4-(4-cyano-3-fluoro-phenyl)phenyl]ethyl]-3-azabicyclo[2.2.2]octane-2-carboxamide], the pIC50 in assay [1] was 5.24; in assay [2] it was 7.18.
On the same counts, the results for `CS(=O)(=O)c1cc(-c2ccc(C[C@@H](C#N)NC(=O)[C@H]3NC4CCC3CC4)cc2)ccc1C#N` [Example 8] are 5.28 and 7.15.
On the same counts, the results for `CS(=O)(=O)c1cccc(-c2ccc(C[C@@H](C#N)NC(=O)[C@H]3NC4CCC3CC4)cc2)c1` [Example 10] are 5.28 and 7.13.
On the same counts, the results for `N#C[C@H](Cc1ccc(-c2ccc3c(c2)CNC3=O)cc1)NC(=O)[C@H]1NC2CCC1CC2` [Example 11] are 4.96 and 7.06.
Consider `CS(=O)(=O)Nc1cccc(-c2ccc(C[C@@H](C#N)NC(=O)[C@H]3NC4CCC3CC4)cc2)c1` [Example 12], for which the pIC50 in assay [1] was 5.00; in assay [2] it was 7.01.
